Columns and labels:
[1] = system: Lymphocytic Leukemia P388; assay: "PS" test, Lymphocytic Leukemia P388 Protocol 1.200; type: in vivo; conditions: mice; for RANGE OF % T/C: "PS" test
Method: The in vivo "PS" tests were carried out on mice according to "Lymphocytic Leukemia P388--Protocol 1.200", published in Cancer Chemotherapy Reports, Part 3, Vol. 3, No. 2, page 9, (September 1972) with results reported in terms of percent survivals of test versus control animals (%T/C).
(§1) As one example, the "PS" and "Bl" tests noted above involved subcutaneous administration of the test compounds in simple water solution forms. It is expected that water solutions of bouvardin and deoxybouvardin would ordinarily be stabilized by addition of antioxidant substances.

Melanotic Melanoma B 16 = assay: "Bl" test, Melanotic Melanoma B 16 Protocol 1.300; type: in vivo; conditions: mice, subcutaneous, water solution
Method: The in vivo "Bl" were carried out on mice according to "Melanotic Melanoma B 16--Protocol 1.300" (id., p. 11) with reporting and evaluation procedures identical to those of the "PS" test.
as §1

[2] = system: cells of human adenocarcinoma of the nasopharynx (KB); assay: "KB" test, Cell Culture Screen KB Protocol 1.600; type: cell-based; conditions: 3 days after drug addition, average
Method: The in vitro "KB" tests were carried out according to "Cell Culture Screen KB--Protocol 1.600" (id., p. 17) using cells of human adenocarcinoma of the nasopharynx. Test results are expressed as the dose that inhibits cell growth to 50% of control growth by 3 days after drug addition.

Solubility in water = type: physicochemical
From the text: as §1

SMILES | RANGE OF % T/C ([1]; DOSE 0.04) [% T/C] | RANGE OF % T/C ([1]; DOSE 0.07) [% T/C] | RANGE OF % T/C ([1]; DOSE 0.11) [% T/C] | RANGE OF % T/C ([1]; DOSE 0.16) [% T/C] | RANGE OF % T/C ([1]; DOSE 0.25) [% T/C] | RANGE OF % T/C ([1]; DOSE 0.50) [% T/C] | RANGE OF % T/C ([1]; DOSE 1.00) [% T/C] | RANGE OF % T/C ([1]; DOSE 2.00) [% T/C] | "PS" test activity, % T/C (survival of test versus control animals) ([1]; dose levels 0.02 to 2.0 mg/kg, subcutaneous, water solution) [% T/C] | "Bl" test activity, % T/C (Melanotic Melanoma B 16; doses 0.12 to 2.0 mg/kg) | "KB" test ED 50 (dose that inhibits cell growth to 50% of control growth) [2] | Solubility in water (Solubility in water) | "PS" test activity, % T/C ([1]; 0.04 to 2.0 mg/kg doses, subcutaneous, water solution) | "Bl" test activity, % T/C (Melanotic Melanoma B 16; 0.25 to 8.0 mg/kg doses)
COc1ccc(C[C@H]2C(=O)N[C@@H](C)C(=O)N(C)[C@@H]3C(=O)N(C)[C@@H](Cc4ccc(O)c(c4)Oc4ccc(cc4)[C@@H]3O)C(=O)N[C@H](C)C(=O)N[C@@H](C)C(=O)N2C)cc1 [bouvardin] | 134 | 139 | 150 to 164 | 158 | 161 to 188 | 135 to 186 | 148 to 217 | 167 to 205 | 135 to 217 | 134-152 % T/C | about 4.3×10^-7 μg/L | partially soluble in water | – | –
COc1ccc(C[C@H]2C(=O)N[C@@H](C)C(=O)N(C)[C@H]3Cc4ccc(cc4)Oc4cc(ccc4O)C[C@@H](C(=O)N[C@H](C)C(=O)N[C@@H](C)C(=O)N2C)N(C)C3=O)cc1 [deoxybouvardin] | – | – | – | – | – | – | – | – | – | – | 1.9e-08 ng/mL | partially soluble in water | 142-216 % T/C | 133-175 % T/C

Source: patent publication US4226856A, “Preparation and use of bouvardin and deoxybouvardin” (University Patents, Inc., priority 1978, dated 1980)
